Results taken from US10799473B2, “Methods of inhibiting IGF-1R activation or downtream signalling thereof to reduce radiation-induced cellular senescence” (The Henry M. Jackson Foundation for the Advancement of …, priority 2013, dated 2020).
“Also recorded” adds a separate entry of the source.

Columns and labels:
[1] = system: Human pulmonary artery endothelial cells (HPAEC); experiment: Senescence-associated β-galactosidase (SA-β-gal) assay in X-ray irradiated HPAEC; assay type: cell-based; details: HPAEC pretreated 30 minutes with inhibitor (AG1024 5 μM, Ly294002 20 μM, rapamycin 500 nM, U0126 10 μM), 10 Gy X-rays, 4 days post-irradiation
Procedure: Cell Culture and Reagents. Human pulmonary artery endothelial cells (HPAEC) were obtained from Cell Applications, Inc. (San Diego, Calif.) and cultured in EBM-2 basal medium containing supplements and growth factors as indicated in the manufacturer's protocol (Lonza, Walkersville, Md.). Cells were maintained at 37° C. in a humidified atmosphere containing 5% CO2. Subconfluent HPAEC at passages 4-8 were used for all experiments. The following chemical inhibitors and their final concentrations were used: […] 20 mM N-acetyl cysteine (NAC) was dissolved in distilled H2O. Cell Irradiation: HPAEC were either irradiated or sham-irradiated at subconfluence (70-90%). Irradiations were conducted using RS2000 Biological Irradiator (Rad Source Technologies, Alpharetta, Ga.) with 0 3 mm Cu shielding at a dose rate of 2.4 Gy/min (160 kV, 25 mA) at room temperature. Senescence-associated fl-galactosidase (SA-β-gal) Assay. SA-β-gal assay was performed according to established protocols with minor modifications (Dimri, Lee et al. 1995; Bandyopadhyay, Gatza et al. 2005). To avoid density-dependent false positive expression of SA-β-gal, HPAEC were seeded at a density of 1.0-2.0×10^4 on 12-well or 6-well dishes and allowed to reach 50-70% confluence prior to treatment. At indicated time-points postirradiation, cells were washed twice in ice cold PBS, fixed in 2% formaldehyde/0.2% glutaraldehyde in PBS for 5 min at room temperature and washed again twice in ice-cold PBS. 1.5-2 ml of freshly prepared X-gal staining solution (1 mg/ml of 5-bromo-4-chloro-3-indolyl β-D-galactoside in 40 mM citric acid/sodium phosphate, pH 6.0 (made by mixing 36.85 parts 0.1 M citric acid solution with 63.15 parts 0.2 M sodium phosphate solution and then verifying pH to be 6.0, 0.1M citric acid was added to adjust pH when necessary), 5 mM potassium ferrocyanide, 5 mM potassium ferricyanide, 150 mM NaCl, 2 mM MgCl2) was then added to the culture dishes and the dishes were incubated for 12-20 h at 37° C. (without CO2). After incubation, cells were washed twice in ice-cold PBS and once in methanol and allowed to dry. Cells were examined for perinuclear blue staining indicative of SA-β-gal activity in at least 3 random fields.

[2] = system: IGF-1R; experiment: Western blotting for IGF-1R phosphorylation in H2O2-treated HPAEC; assay type: cell-based, human
Procedure: (§1) Cell Culture and Reagents. Human pulmonary artery endothelial cells (HPAEC) were obtained from Cell Applications, Inc. (San Diego, Calif.) and cultured in EBM-2 basal medium containing supplements and growth factors as indicated in the manufacturer's protocol (Lonza, Walkersville, Md.). Cells were maintained at 37° C. in a humidified atmosphere containing 5% CO2. Subconfluent HPAEC at passages 4-8 were used for all experiments. The following chemical inhibitors and their final concentrations were used: AG1024 (5 μM, EMD Millipore, Billerica, Mass.), U0126 (10 μM), Ly294002 (20 μM), rapamycin (500 nM). […] 20 mM N-acetyl cysteine (NAC) was dissolved in distilled H2O.
(§2) Western blotting. […]
(§3) Protein concentrations from whole cell lysates were determined using Protein® BCA Protein Assay Kit (Thermo Scientific, Rockford, Ill.). […] Proteins were detected with horseradish peroxidase-linked secondary antibodies and SuperSignal® West Pico Chemiluminescent Substrate (Pierce, Rockford, Ill.). […]
(§4) Radiation-induced reactive oxygen species (ROS) are required for early IGF-1R phosphorylation. […] We then determined whether this ROS-induced phosphorylation is ligand-dependent by treating the cells with H2O2 in the presence of AG1024 and blotting for phosphorylated IGF-1R. […]

[3] = system: S6 ribosomal protein (Ser 235/236); experiment: Western blotting for phosphorylated S6 ribosomal protein (Ser 235/236) in irradiated HPAEC; assay type: cell-based, human; details: 5 μM AG1024, 10 Gy X-rays, 72 hours post-irradiation
Procedure: as §1
(§5) Cell Irradiation: HPAEC were either irradiated or sham-irradiated at subconfluence (70-90%). Irradiations were conducted using RS2000 Biological Irradiator (Rad Source Technologies, Alpharetta, Ga.) with 0 3 mm Cu shielding at a dose rate of 2.4 Gy/min (160 kV, 25 mA) at room temperature.
as §2, §3

[4] = system: p53 and p21/wafl; experiment: Western blotting for p53 and p21/wafl expression in irradiated HPAEC; assay type: cell-based, human; details: western blot
Procedure: as §1, §5, §2, §3

[5] = system: Akt S473; experiment: Western blotting for phosphorylated Akt (S473) in irradiated HPAEC; assay type: cell-based, human; details: 5 μM AG1024, 10 Gy X-rays, 3 hours post-irradiation
Procedure: as §1, §5, §2, §3

[6] = system: Human pulmonary artery endothelial cells (HPAEC); experiment: Cell morphology / cellular volume of X-ray irradiated HPAEC; assay type: cell-based; details: inhibitor pretreatment (AG1024 5 μM, Ly294002 20 μM, rapamycin 500 nM), 10 Gy X-rays, within 96 h
Procedure: as §1, §5
Senescence-associated fl-galactosidase (SA-β-gal) Assay. SA-β-gal assay was performed according to established protocols with minor modifications (Dimri, Lee et al. 1995; Bandyopadhyay, Gatza et al. 2005). To avoid density-dependent false positive expression of SA-β-gal, HPAEC were seeded at a density of 1.0-2.0×10^4 on 12-well or 6-well dishes and allowed to reach 50-70% confluence prior to treatment. […]

[7] = system: caspase-3; experiment: Western blotting for cleaved caspase-3 in irradiated HPAEC (radiation-induced apoptosis); assay type: cell-based, human; details: 6 hours post-irradiation
Procedure: as §1, §5, §2, §3

[8] = system: IGF-1R; experiment: Western blotting for IGF-1R phosphorylation in X-ray irradiated HPAEC; assay type: cell-based, human; details: 20 mM NAC 1 hour, 10 Gy X-rays, 3 hours post-irradiation
Procedure: as §1
Cell Irradiation: HPAEC were either irradiated or sham-irradiated at subconfluence (70-90%). […]
as §3, §4

Compound: N#CC(=C(/N)Sc1ccccc1N)/C(C#N)=C(\N)Sc1ccccc1N [U0126]
- radiation-induced accelerated senescence (SA-β-gal activity, percentage of SA-β-gal positive cells) [1]: did not rescue cells from undergoing accelerated senescence

Compound: OO [H2O2]
- IGF-1R phosphorylation induced by H2O2 alone ([2]; H2O2 1 μM and 10 μM, 20 minutes): sufficient to induce IGF-1R phosphorylation

Compound: CC(C)(C)c1cc(C=C(C#N)C#N)cc(Br)c1O [AG1024]
- ROS (H2O2)-induced IGF-1R phosphorylation in presence of inhibitor ([2]; 5 μM AG1024 30 minutes, then 10 μM H2O2 20 minutes): not inhibited
- phosphorylation of S6 ribosomal protein (Ser 235/236) [3]: significantly reduced
- radiation-induced p53 and p21/wafl expression ([4]; 5 μM AG1024, 10 Gy X-rays): suppression
- radiation-induced phosphorylation of Akt S473 [5]: had no effect
- cellular morphology / change in cellular volume after radiation exposure [6]: prevented the change in cellular volume
- radiation-induced accelerated senescence (SA-β-gal activity, percentage of SA-β-gal positive cells) [1]: Attenuation; also recorded: significantly reduced cellular senescence
- levels of active (cleaved) caspase-3, radiation-induced apoptosis ([7]; 5 μM AG1024 30 minutes, 50 Gy X-rays): does not regulate; also recorded: did not alter

Compound: O=c1cc(N2CCOCC2)oc2c(-c3ccccc3)cccc12 [LY294002, 2-(4-Morpholinyl)-8-phenyl-4H-chromen-4-one]
- radiation-induced p21/wafl expression ([4]; 500 nM rapamycin or 20 μM Ly294002, 10 Gy X-rays): attenuated
- cellular morphology / change in cellular volume after radiation exposure [6]: maintenance of normal cellular morphology
- radiation-induced accelerated senescence (SA-β-gal activity, percentage of SA-β-gal positive cells) [1]: attenuated
- radiation-induced accelerated senescence (SA-β-gal activity, percentage of SA-β-gal positive cells) ([1]; listed as Ly294002): Attenuation

Compound: CC(=O)N[C@@H](CS)C(=O)O [NAC, N-acetyl-L-cysteine]
- IR-induced IGF-1R phosphorylation [8]: attenuated

Compound: IGF-1: exogenous IGF-1 (IGF-1R activator), activating ligand of IGF-1R
- levels of active (cleaved) caspase-3, radiation-induced apoptosis ([7]; exogenous IGF-1 50 ng/ml 18 hours, X-rays (10 Gy in legend, 50 Gy in text)): does not regulate; also recorded: did not alter
